In paper PMC5218480 (PLoS ONE, 2017):

System: MV-4-11 cells
Assay: Gene expression microarray analysis (Affymetrix PrimeView) and GSEA
Assay type: cell-based, human
Parameters: RFU PODN (11730768_x_at) / Fold change /veh PODN (11730768_x_at) / RFU LINC00158 (11744669_a_at) / Fold change /veh LINC00158 (11744669_a_at) / RFU DUSP10 (11751237_a_at) / Fold change /veh DUSP10 (11751237_a_at) / RFU ID3 (11757404_x_at) / Fold change /veh ID3 (11757404_x_at) / RFU PLEKHG5 (11737974_s_at) / Fold change /veh PLEKHG5 (11737974_s_at) / RFU LRRC4B (11730491_at) / Fold change /veh LRRC4B (11730491_at) / RFU GIMAP4 (11747438_a_at) / Fold change /veh GIMAP4 (11747438_a_at) / RFU KRT8 (11758183_x_at) / Fold change /veh KRT8 (11758183_x_at) / RFU CNN1 (11734310_a_at) / Fold change /veh CNN1 (11734310_a_at) / RFU VPS37D (11726825_at) / Fold change /veh VPS37D (11726825_at) / RFU C10orf10 (11716522_x_at) / Fold change /veh C10orf10 (11716522_x_at) / RFU KIR2DL2 /// KIR2DL4 /// KIR2DL5A /// KIR2DL5B /// KIR2DS1 /// KIR2DS2 /// KIR2DS3 /// KIR2DS4 /// KIR3DL3 /// KIR3DL3 /// KIR3DS1 (11738374_at) / Fold change /veh KIR2DL2 /// KIR2DL4 /// KIR2DL5A /// KIR2DL5B /// KIR2DS1 /// KIR2DS2 /// KIR2DS3 /// KIR2DS4 /// KIR3DL3 /// KIR3DL3 /// KIR3DS1 (11738374_at) / RFU C1QL1 (11718748_at) / Fold change /veh C1QL1 (11718748_at) / RFU TMPRSS4 (11747572_a_at) / Fold change /veh TMPRSS4 (11747572_a_at) / RFU HAMP (11756126_x_at) / Fold change /veh HAMP (11756126_x_at) / RFU RNFT2 (11725882_a_at) / Fold change /veh RNFT2 (11725882_a_at) / RFU NR4A2 (11747474_a_at) / Fold change /veh NR4A2 (11747474_a_at) / RFU ABCC12 (11746883_a_at) / Fold change /veh ABCC12 (11746883_a_at) / RFU TMEM136 (11760407_x_at) / Fold change /veh TMEM136 (11760407_x_at) / RFU CLDN22 /// WWC2 (11732394_at) / Fold change /veh CLDN22 /// WWC2 (11732394_at) / RFU HLA-DPB1 (11760878_x_at) / Fold change /veh HLA-DPB1 (11760878_x_at) / RFU SPINT1 (11716480_a_at) / Fold change /veh SPINT1 (11716480_a_at) / RFU GAP43 (11754022_s_at) / Fold change /veh GAP43 (11754022_s_at) / RFU A4GNT (11735810_at) / Fold change /veh A4GNT (11735810_at) / RFU PRB3 (11715151_x_at) / Fold change /veh PRB3 (11715151_x_at) / RFU TUBB4B (11761932_at) / Fold change /veh TUBB4B (11761932_at) / RFU CAPN14 (11732068_a_at) / Fold change /veh CAPN14 (11732068_a_at) / RFU TMCC2 (11721928_a_at) / Fold change /veh TMCC2 (11721928_a_at) / RFU IRGQ (11745062_a_at) / Fold change /veh IRGQ (11745062_a_at) / RFU FAM174B (11720279_a_at) / Fold change /veh FAM174B (11720279_a_at) / RFU TMPRSS4 (11748680_a_at) / Fold change /veh TMPRSS4 (11748680_a_at) / RFU FAM212B (11763350_a_at) / Fold change /veh FAM212B (11763350_a_at) / RFU PLEKHG5 (11743358_a_at) / Fold change /veh PLEKHG5 (11743358_a_at) / RFU ZSCAN30 (11745921_a_at) / Fold change /veh ZSCAN30 (11745921_a_at) / RFU CMKLR1 (11741424_a_at) / Fold change /veh CMKLR1 (11741424_a_at) / RFU LOC101060620 /// MAPK8IP1 (11723275_at) / Fold change /veh LOC101060620 /// MAPK8IP1 (11723275_at) / RFU SPTSSB (11747773_x_at) / Fold change /veh SPTSSB (11747773_x_at) / RFU PRSS12 (11739890_at) / Fold change /veh PRSS12 (11739890_at) / RFU BIN1 (11741810_x_at) / Fold change /veh BIN1 (11741810_x_at) / RFU WNT11 (11732464_a_at) / Fold change /veh WNT11 (11732464_a_at) / RFU C10orf10 (11716521_a_at) / Fold change /veh C10orf10 (11716521_a_at) / RFU C5orf56 (11738089_at) / Fold change /veh C5orf56 (11738089_at) / RFU CYB561 (11721691_x_at) / Fold change /veh CYB561 (11721691_x_at) / RFU ANKRD19P (11752326_a_at) / Fold change /veh ANKRD19P (11752326_a_at) / RFU OR2T12 /// OR2T33 /// OR2T8 (11738714_s_at) / Fold change /veh OR2T12 /// OR2T33 /// OR2T8 (11738714_s_at) / RFU VCAN (11748164_a_at) / Fold change /veh VCAN (11748164_a_at) / RFU JSRP1 (11732532_at) / Fold change /veh JSRP1 (11732532_at) / RFU KRTAP10-11 (11738290_x_at) / Fold change /veh KRTAP10-11 (11738290_x_at) / RFU MYO3A (11730013_a_at) / Fold change /veh MYO3A (11730013_a_at) / RFU EBF3 (11725865_a_at) / Fold change /veh EBF3 (11725865_a_at) / RFU CAMK2N1 (11719241_x_at) / Fold change /veh CAMK2N1 (11719241_x_at) / RFU C5orf56 (11738088_a_at) / Fold change /veh C5orf56 (11738088_a_at) / RFU OLFML3 (11715873_a_at) / Fold change /veh OLFML3 (11715873_a_at) / RFU LOC100653217 /// NTM (11731650_a_at) / Fold change /veh LOC100653217 /// NTM (11731650_a_at) / RFU MAPK11 (11762145_a_at) / Fold change /veh MAPK11 (11762145_a_at) / RFU FIZ1 (11724087_x_at) / Fold change /veh FIZ1 (11724087_x_at) / RFU OASL (11726364_x_at) / Fold change /veh OASL (11726364_x_at) / RFU SOX15 (11748057_x_at) / Fold change /veh SOX15 (11748057_x_at) / RFU CD79A (11719716_a_at) / Fold change /veh CD79A (11719716_a_at) / RFU HIST1H1D (11736915_at) / Fold change /veh HIST1H1D (11736915_at) / RFU CASKIN2 (11723855_a_at) / Fold change /veh CASKIN2 (11723855_a_at) / RFU LOC730098 (11760151_x_at) / Fold change /veh LOC730098 (11760151_x_at) / RFU OR4N2 (11742367_at) / Fold change /veh OR4N2 (11742367_at) / RFU PRRT2 (11749266_a_at) / Fold change /veh PRRT2 (11749266_a_at) / RFU SNX32 (11753110_a_at) / Fold change /veh SNX32 (11753110_a_at) / RFU CDHR5 (11726645_a_at) / Fold change /veh CDHR5 (11726645_a_at) / RFU RCAN1 (11760418_a_at) / Fold change /veh RCAN1 (11760418_a_at) / RFU FAM167A (11723789_a_at) / Fold change /veh FAM167A (11723789_a_at) / RFU FAM26E (11764081_at) / Fold change /veh FAM26E (11764081_at) / RFU ISYNA1 (11749810_s_at) / Fold change /veh ISYNA1 (11749810_s_at) / RFU ACY1 (11761880_at) / Fold change /veh ACY1 (11761880_at) / RFU 11764098_at / Fold change /veh 11764098_at / RFU SAMD14 (11745864_x_at) / Fold change /veh SAMD14 (11745864_x_at) / RFU NPB (11741838_a_at) / Fold change /veh NPB (11741838_a_at) / RFU TMPRSS6 (11731388_a_at) / Fold change /veh TMPRSS6 (11731388_a_at) / RFU KRTAP10-2 (11738614_at) / Fold change /veh KRTAP10-2 (11738614_at) / RFU ARHGAP8 /// PRR5-ARHGAP8 (11727945_x_at) / Fold change /veh ARHGAP8 /// PRR5-ARHGAP8 (11727945_x_at) / RFU KRTAP5-7 /// NADSYN1 (11734609_at) / Fold change /veh KRTAP5-7 /// NADSYN1 (11734609_at) / RFU RASL12 (11751679_a_at) / Fold change /veh RASL12 (11751679_a_at) / RFU CDKN2B (11736163_a_at) / Fold change /veh CDKN2B (11736163_a_at) / RFU PRF1 (11729649_at) / Fold change /veh PRF1 (11729649_at) / RFU, ZNF638 /// ZNF638-IT1 / Fold change vs veh, ZNF638 /// ZNF638-IT1 / RFU, PANK3 / Fold change vs veh, PANK3 / RFU, SH3YL1 / Fold change vs veh, SH3YL1 / RFU, ZEB2 / Fold change vs veh, ZEB2 / RFU, NRIP1 / Fold change vs veh, NRIP1 / RFU, PTTG1IP / Fold change vs veh, PTTG1IP / RFU, CAPN2 / Fold change vs veh, CAPN2 / RFU, MED14 / Fold change vs veh, MED14 / RFU, SNORA58 / Fold change vs veh, SNORA58 / RFU, C1orf63 / Fold change vs veh, C1orf63 / RFU, LRRFIP1 / Fold change vs veh, LRRFIP1 / RFU, NDUFAF7 / Fold change vs veh, NDUFAF7 / RFU, SLC12A2 / Fold change vs veh, SLC12A2 / RFU, IBTK / Fold change vs veh, IBTK / RFU, ESF1 / Fold change vs veh, ESF1 / Fold change vs veh, TMEM50B / RFU, TAOK1 / Fold change vs veh, TAOK1 / RFU, ACBD3 / Fold change vs veh, ACBD3 / RFU, TMA16 / Fold change vs veh, TMA16 / RFU, RWDD3 / Fold change vs veh, RWDD3 / RFU, BCAT1 / Fold change vs veh, BCAT1 / RFU, EDEM3 / Fold change vs veh, EDEM3 / RFU, TMEM33 / Fold change vs veh, TMEM33 / RFU, WDR75 / Fold change vs veh, WDR75 / RFU, AHCTF1 / Fold change vs veh, AHCTF1 / RFU, TFRC / Fold change vs veh, TFRC / RFU, ZDHHC17 / Fold change vs veh, ZDHHC17 / RFU, NOM1 / Fold change vs veh, NOM1 / RFU, ARL8B / Fold change vs veh, ARL8B / RFU, ZBTB11 / Fold change vs veh, ZBTB11 / RFU, TAMM41 / Fold change vs veh, TAMM41 / RFU, KIAA1704 /// LOC100996395 / Fold change vs veh, KIAA1704 /// LOC100996395 / RFU, ING1 / Fold change vs veh, ING1 / RFU, TRMT61B / Fold change vs veh, TRMT61B / RFU, FUBP3 / Fold change vs veh, FUBP3 / RFU, TP53 / Fold change vs veh, TP53 / RFU, TNKS2 / Fold change vs veh, TNKS2 / RFU, ZFP14 / Fold change vs veh, ZFP14 / RFU, ACTR2 / Fold change vs veh, ACTR2 / RFU, PPP3R1 / Fold change vs veh, PPP3R1 / RFU, PIK3R1 / Fold change vs veh, PIK3R1 / RFU, HNRNPA1 / Fold change vs veh, HNRNPA1 / RFU, RNF170 / Fold change vs veh, RNF170 / RFU, ZNF28 / Fold change vs veh, ZNF28 / RFU, RNGTT / Fold change vs veh, RNGTT / RFU, OGT / Fold change vs veh, OGT / RFU, BRD1 / Fold change vs veh, BRD1 / RFU, MARS / Fold change vs veh, MARS / RFU, ZNF655 / Fold change vs veh, ZNF655 / RFU, FAHD1 / Fold change vs veh, FAHD1 / RFU, BDP1 / Fold change vs veh, BDP1 / RFU, LRRCC1 / Fold change vs veh, LRRCC1 / RFU, ARID1A / Fold change vs veh, ARID1A / RFU, ZNF146 / Fold change vs veh, ZNF146 / RFU, ZNF330 / Fold change vs veh, ZNF330 / RFU, GPN3 / Fold change vs veh, GPN3 / RFU, C9orf123 / Fold change vs veh, C9orf123 / RFU, N4BP2L2 / Fold change vs veh, N4BP2L2 / RFU, ARFIP1 / Fold change vs veh, ARFIP1 / RFU, FAM179B / Fold change vs veh, FAM179B / RFU, BCL10 / Fold change vs veh, BCL10 / RFU, UHRF1BP1L / Fold change vs veh, UHRF1BP1L / RFU, BET1 / Fold change vs veh, BET1 / RFU, CNOT2 / Fold change vs veh, CNOT2 / RFU, ZNF268 / Fold change vs veh, ZNF268 / Fold change vs veh, ZNF507 / RFU, DGCR2 / Fold change vs veh, DGCR2 / RFU, WDSUB1 / Fold change vs veh, WDSUB1 / Fold change vs veh, HSP90B1 /// MIR3652 / RFU, ADSS / Fold change vs veh, ADSS / RFU, GK / Fold change vs veh, GK / RFU, ZNF148 / Fold change vs veh, ZNF148 / RFU, TAF9 / Fold change vs veh, TAF9 / RFU, SLC1A5 / Fold change vs veh, SLC1A5 / RFU, SLMO2 / Fold change vs veh, SLMO2 / RFU, ABCC4 / Fold change vs veh, ABCC4 / RFU, LOC101060439 /// RAP1B / Fold change vs veh, LOC101060439 /// RAP1B / RFU, RFX7 / Fold change vs veh, RFX7 / RFU, GTPBP10 / Fold change vs veh, GTPBP10 / RFU, CNEP1R1 / Fold change vs veh, CNEP1R1 / RFU, BIVM-ERCC5 /// ERCC5 / Fold change vs veh, BIVM-ERCC5 /// ERCC5 / RFU, ILF3 / Fold change vs veh, ILF3 / RFU 11762660_at / Fold change /veh 11762660_at / RFU VCAN (11757783_s_at) / Fold change /veh VCAN (11757783_s_at) / RFU DDX43 (11728927_at) / Fold change /veh DDX43 (11728927_at) / RFU KRT8 (11758188_x_at) / Fold change /veh KRT8 (11758188_x_at) / RFU NKD1 (11759106_at) / Fold change /veh NKD1 (11759106_at) / RFU SRD5A1 (11742802_a_at) / Fold change /veh SRD5A1 (11742802_a_at) / RFU TPSAB1 /// TPSB2 (11721975_s_at) / Fold change /veh TPSAB1 /// TPSB2 (11721975_s_at) / RFU GSTM3 (11746129_a_at) / Fold change /veh GSTM3 (11746129_a_at) / RFU IL23R (11737362_x_at) / Fold change /veh IL23R (11737362_x_at) / RFU TMEM51 (11727254_a_at) / Fold change /veh TMEM51 (11727254_a_at) / RFU PIWIL2 (11732686_x_at) / Fold change /veh PIWIL2 (11732686_x_at) / RFU ORM1 (11744905_x_at) / Fold change /veh ORM1 (11744905_x_at) / RFU CCDC152 (11743942_at) / Fold change /veh CCDC152 (11743942_at) / RFU ECM1 (11717891_a_at) / Fold change /veh ECM1 (11717891_a_at) / RFU IL23R (11748794_a_at) / Fold change /veh IL23R (11748794_a_at) / RFU TNFAIP8L3 (11732012_x_at) / Fold change /veh TNFAIP8L3 (11732012_x_at) / RFU MBOAT4 (11741988_at) / Fold change /veh MBOAT4 (11741988_at) / RFU 11764193_at / Fold change /veh 11764193_at / RFU TMEM53 (11763286_at) / Fold change /veh TMEM53 (11763286_at) / RFU MAGEB2 (11727129_at) / Fold change /veh MAGEB2 (11727129_at) / RFU TMEM200A (11744735_a_at) / Fold change /veh TMEM200A (11744735_a_at) / RFU CCDC152 (11751479_a_at) / Fold change /veh CCDC152 (11751479_a_at) / RFU FAM211A (11726209_a_at) / Fold change /veh FAM211A (11726209_a_at) / RFU RGS16 (11746705_a_at) / Fold change /veh RGS16 (11746705_a_at) / RFU VCAN (11755009_s_at) / Fold change /veh VCAN (11755009_s_at) / RFU RHOB (11743442_s_at) / Fold change /veh RHOB (11743442_s_at) / RFU RGS16 (11720943_a_at) / Fold change /veh RGS16 (11720943_a_at) / RFU RGS16 (11720944_at) / Fold change /veh RGS16 (11720944_at) / RFU, VPS4B / Fold change vs veh, VPS4B / RFU, CREB1 / Fold change vs veh, CREB1 / RFU, DNAJC13 / Fold change vs veh, DNAJC13 / RFU, GNAQ / Fold change vs veh, GNAQ / RFU, CDK5R1 / Fold change vs veh, CDK5R1 / RFU, ZRANB3 / Fold change vs veh, ZRANB3 / RFU, CUL4A / Fold change vs veh, CUL4A / RFU, CCNY / Fold change vs veh, CCNY / RFU, UFL1 / Fold change vs veh, UFL1 / RFU, COG3 / Fold change vs veh, COG3 / RFU, DIAPH2 / Fold change vs veh, DIAPH2 / RFU, SKA2 / Fold change vs veh, SKA2 / RFU, AFF3 / Fold change vs veh, AFF3 / RFU, LMF1 / Fold change vs veh, LMF1 / RFU, IPO11 / Fold change vs veh, IPO11 / RFU, DFFB / Fold change vs veh, DFFB / RFU, FOXP1 / Fold change vs veh, FOXP1 / RFU, CARD8 / Fold change vs veh, CARD8 / RFU, STRN3 / Fold change vs veh, STRN3 / RFU, ADK / Fold change vs veh, ADK / RFU, RASSF2 / Fold change vs veh, RASSF2 / RFU, WIPF1 / Fold change vs veh, WIPF1 / RFU, LARP1B / Fold change vs veh, LARP1B / RFU, RASA1 / Fold change vs veh, RASA1 / RFU, RB1 / Fold change vs veh, RB1 / RFU, PPFIA1 / Fold change vs veh, PPFIA1 / RFU, MAT2A / Fold change vs veh, MAT2A / RFU, CCT5 / Fold change vs veh, CCT5 / RFU, WDR92 / Fold change vs veh, WDR92 / RFU, CUX1 / Fold change vs veh, CUX1 / RFU, TTC7A / Fold change vs veh, TTC7A / RFU, TMEM135 / Fold change vs veh, TMEM135 / RFU, DEPTOR / Fold change vs veh, DEPTOR / RFU, CPM / Fold change vs veh, CPM / RFU, DNAJB6 / Fold change vs veh, DNAJB6 / RFU, CACNA2D3 / Fold change vs veh, CACNA2D3 / RFU, DTX4 / Fold change vs veh, DTX4 / RFU, TFCP2 / Fold change vs veh, TFCP2 / RFU, GMCL1 /// GMCL1P1 / Fold change vs veh, GMCL1 /// GMCL1P1 / RFU, AEBP2 / Fold change vs veh, AEBP2 / RFU, SNHG1 /// SNORD22 /// SNORD25 /// SNORD26 /// SNORD27 /// SNORD28 /// SNORD29 /// SNORD31 / Fold change vs veh, SNHG1 /// SNORD22 /// SNORD25 /// SNORD26 /// SNORD27 /// SNORD28 /// SNORD29 /// SNORD31 / Fold change (Aza/veh), C12orf56 (ProbeSet 11735607_a_at) / Fold change (ACY-1035/veh), C12orf56 (ProbeSet 11735607_a_at) / Fold change (Aza/veh), FGFR1OP (ProbeSet 11751329_s_at) / Fold change (ACY-1035/veh), FGFR1OP (ProbeSet 11751329_s_at) / Fold change (Aza/veh), VPS36 (ProbeSet 11739960_a_at) / Fold change (ACY-1035/veh), VPS36 (ProbeSet 11739960_a_at) / RFU SYPL1 (11715823_x_at) / Fold change /veh SYPL1 (11715823_x_at) / RFU IGFBP7 (11715501_s_at) / Fold change /veh IGFBP7 (11715501_s_at) / RFU REEP3 (11722064_at) / Fold change /veh REEP3 (11722064_at) / RFU IGLL1 (11728026_x_at) / Fold change /veh IGLL1 (11728026_x_at): dose or concentration left out as unconfirmed
Conditions: ProbeSet 11745260_x_at; LIST B

Nc1ncn([C@@H]2O[C@H](CO)[C@@H](O)[C@H]2O)c(=O)n1 [azacitidine]
RFU, SLC12A2: 29.09 RFU
